Structures are written as SMILES.

Data set [1] concerns the target Sigma non-opioid intracellular receptor 1 (Rattus norvegicus, UniProt Q9R0C9). Briefly: Inhibition of [3H]pentazocine binding to Opioid receptor sigma 1.
Data set [2] relates to Rattus norvegicus. Put plainly: Tested for the anticonvulsant activity administered 60 min orally before MES induction. The data set is classed as functional. The settings on record: po, 1 h.
The target in data set [3] is T1, Sodium channel alpha subunits; brain (Types I, II, III) (Rattus norvegicus, UniProt P04775+P04774+P08104). Put plainly: Inhibition of [3H]batrachotoxin binding to rat brain sodium channel.
The target of data set [4] is T1, Sodium channel alpha subunits; brain (Types I, II, III). Put plainly: Inhibition of [3H]saxitoxin binding to rat brain sodium channel. The data set is classed as tissue-based.
The nature of data set [5]: Protective index (PI) is the ratio of TD50 in the rotarod test over the ED50 in the anticonvulsant test. Type of data set: functional.
The species entered for data set [6] is Mus musculus. Put plainly: Toxic dose causing 50% treated mice fall from the rotarod was evaluated.
Data set [7] is described as follows: Lethal dose in rats. Type of data set: toxicity. The settings on record: rat, in vivo.

Chain of Sigma non-opioid intracellular receptor 1 (Q9R0C9 whole entry): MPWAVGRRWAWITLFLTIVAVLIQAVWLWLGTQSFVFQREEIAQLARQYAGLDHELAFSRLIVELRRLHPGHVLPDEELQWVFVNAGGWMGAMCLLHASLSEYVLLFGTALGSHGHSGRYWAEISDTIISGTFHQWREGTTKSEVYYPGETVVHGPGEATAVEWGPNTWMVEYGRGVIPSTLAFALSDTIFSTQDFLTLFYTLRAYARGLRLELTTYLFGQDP

By IC50 is commonly meant the concentration at which inhibition is half-maximal. A word on the ED50: it is the dose that gives a 50% effect, or the effect in half of the subjects. By TD50 is commonly meant the dose at which the toxic effect under study appears in half of the subjects. Higher therefore signals harm only at a large dose. For `CS(=O)(=O)O.C[C@H](NCc1ccc(OCc2cccc(F)c2)cc1)C(N)=O` [SAFINAMIDE MESYLATE], the IC50 in data set [1] was 0.0197 µM; in data set [3] (read-out: IC50), 8.2 µM; in data set [4], greater than 300 µM. Further, it took a dose of 8 mg/kg to reach the 50% effect level in data set [2] (ED50). In data set [5], the PI is 78.2. Moreover, the TD50 in data set [6] is 626 mg/kg.
Take `Nc1nnc(-c2cccc(Cl)c2Cl)c(N)n1` [LAMOTRIGINE]: the IC50 in data set [1] is greater than 10 µM; in data set [3], 185.9 µM; in data set [4], greater than 100 µM. The same molecule yielded an ED50 in data set [2] of 2.2 mg/kg. Further, the PI in data set [5] came out at 38.2. In data set [6], the TD50 was found to be 84 mg/kg.
With `C[C@@H](NCc1ccc(OCCCc2ccccc2)cc1)C(N)=O`, the IC50 in data set [1] was 0.28 µM; in data set [3], 7.8 µM; in data set [4], greater than 300 µM. The same molecule came in with an ED50 in data set [2] of 12.6 mg/kg. Besides, the PI in data set [5] was 102. In data set [6], this molecule had a TD50 of 1280 mg/kg.
In the case of `C[C@@H](NCc1ccc(OCc2cccc(F)c2)cc1)C(N)=O`, the IC50 in data set [1] was 0.28 µM; in data set [3], 8.5 µM; in data set [4], greater than 300 µM. The ED50 in data set [2] stood at 7.2 mg/kg. For the same molecule, the PI in data set [5] was determined as 87.8. The TD50 in data set [6] was found to be 584 mg/kg.
`CNC(=O)[C@@H](CO)NCc1ccc(OCc2cccc(F)c2)cc1`: the concentration for half-maximal inhibition (IC50) in data set [1] was 6.6 µM; in data set [3], 17.9 µM; in data set [4], greater than 300 µM. Also, the 50% effect level in data set [2] (ED50) was put at a dose of 6.4 mg/kg. For the same molecule, in data set [5], the PI turned out to be 92.6. In addition, in data set [6], the TD50 came to 593 mg/kg.
On to `C[C@H](NCc1ccc(NCc2cccc(F)c2)cc1)C(N)=O`, for which the IC50 in data set [1] was 0.0344 µM; in data set [3], 13.9 µM; in data set [4] it was greater than 300 µM. Besides, the ED50 in data set [2] stood at 6.6 mg/kg. Further, in data set [5], the PI turned out to be 88.3. In addition, the TD50 in data set [6] amounted to 583 mg/kg.
For the molecule `C[C@H](NCc1ccc(OCCCCCc2ccccc2)cc1)C(N)=O`, the IC50 in data set [1] was greater than 10 µM; in data set [3] it was 1.4 µM; in data set [4] it was greater than 300 µM. Further, the 50% effective dose (ED50) in data set [2] turned out to be 12.5 mg/kg. In addition, the PI in data set [5] was found to be 80.8. The same molecule registered a TD50 in data set [6] of 1010 mg/kg.
In general, LD50 refers to the dose expected to kill half of the subjects tested. The low end stands for a more toxic substance, the high end for a less toxic substance. `COc1ccc2c(c1)[C@]13CCCC[C@@H]1[C@H](C2)N(C)CC3` [DEXTROMETHORPHAN]: the ED50 in data set [2] is 12.9 mg/kg. In addition, the IC50 is 1.3 µM in data set [3] and greater than 100 µM in data set [4]. Further, the LD50 in data set [7] is 234 mg/kg.
Regarding `COc1ccc(CN[C@@H](C)C(N)=O)cc1`, the figures for the IC50 in data set [1], in data set [3] and in data set [4] were greater than 10 µM, 145.8 µM and greater than 300 µM, respectively. In addition, in data set [2], the ED50 is greater than 100 mg/kg.
`CNC(=O)[C@H](CO)NCc1ccc(OCc2cccc(F)c2)cc1`: the results for the IC50 in data set [1], in data set [3] and in data set [4] were 0.588 µM, 26.3 µM and greater than 300 µM, respectively. It took a dose of 13 mg/kg to reach the 50% effect level in data set [2] (ED50). Further, the PI in data set [5] is 70.4. Also, the TD50 in data set [6] is 915 mg/kg.
`C[C@H](NCc1ccc(OCc2ccccc2)cc1)C(=O)O` gave an ED50 in data set [2] greater than 100 mg/kg. The values for the IC50 in data set [3] and in data set [4] were 150.8 µM and greater than 300 µM, respectively.
In the case of `C[C@@H](NCc1ccc(NCc2cccc(F)c2)cc1)C(N)=O`, the IC50 in data set [1] is 0.28 µM; in data set [3], 11.3 µM; in data set [4], greater than 300 µM. In data set [2], this molecule registered an ED50 of 1.7 mg/kg. Besides, the PI in data set [5] was determined as 160. This molecule returned a TD50 in data set [6] of 272 mg/kg.
In the case of `C[C@H](NCc1ccc(OCCCc2ccccc2)cc1)C(N)=O`, the IC50 in data set [1] was 0.0193 µM; in data set [3] it was 13.2 µM; in data set [4] it was greater than 300 µM. In addition, the ED50 in data set [2] came to 6.7 mg/kg. In data set [5], the PI amounted to 87.2. For the same molecule, the TD50 in data set [6] was found to be 584 mg/kg.
For the molecule `C[C@H](NCc1ccc(OCCCCc2ccccc2)cc1)C(N)=O`, the IC50 is 0.55 µM in data set [1], 1.1 µM in data set [3] and greater than 300 µM in data set [4]. Also, the ED50 in data set [2] came out at 12.4 mg/kg. For the same molecule, the PI in data set [5] amounted to 81. In data set [6], this molecule gave a TD50 of 1000 mg/kg.

The values above are taken from ChEMBL document CHEMBL1132100, “Sodium channel activity and sigma binding of 2-aminopropanamide anticonvulsants” (Bioorg Med Chem Lett, 1999).
